Experimental data as given in ChEMBL document CHEMBL5131391, “One-pot three-component synthesis of novel pyrazolo[3,4-b]pyridines as potent antileukemic agents” (Eur J Med Chem, 2022).

Legend:
Assay type in all cases: functional
K562 [1] = assay: Antiproliferative activity against human K562 cells assessed as reduction in cell viability incubated for 72 hrs by resazurin dye based assay; conditions: K562, 72 h
RPMI-8226 = assay: Antiproliferative activity against human RPMI-8226 cells assessed as growth inhibition at 10 uM measured after 48 hrs by NCI protocol based SRB assay relative to control; conditions: read-out: GI
CCRF-CEM [2] = assay: Antiproliferative activity against human CCRF-CEM cells assessed as growth inhibition at 10 uM measured after 48 hrs by NCI protocol based SRB assay relative to control; conditions: read-out: GI
MOLT-4 = assay: Antiproliferative activity against human MOLT-4 cells assessed as growth inhibition at 10 uM measured after 48 hrs by NCI protocol based SRB assay relative to control; conditions: read-out: GI
K562 [3] = assay: Antiproliferative activity against human K562 cells assessed as growth inhibition at 10 uM measured after 48 hrs by NCI protocol based SRB assay relative to control; conditions: read-out: GI
SR = assay: Antiproliferative activity against human SR cells assessed as growth inhibition at 10 uM measured after 48 hrs by NCI protocol based SRB assay relative to control; conditions: read-out: GI
HOP-92 = assay: Antiproliferative activity against human HOP-92 cells assessed as growth inhibition at 10 uM measured after 48 hrs by NCI protocol based SRB assay relative to control; conditions: read-out: GI
A549 = assay: Antiproliferative activity against human A549 cells assessed as growth inhibition at 10 uM measured after 48 hrs by NCI protocol based SRB assay relative to control; conditions: read-out: GI
EKVX = assay: Antiproliferative activity against human EKVX cells assessed as growth inhibition at 10 uM measured after 48 hrs by NCI protocol based SRB assay relative to control; conditions: read-out: GI
NCI-H460 = assay: Antiproliferative activity against human NCI-H460 cells assessed as growth inhibition at 10 uM measured after 48 hrs by NCI protocol based SRB assay relative to control; conditions: read-out: GI
NCI-H522 = assay: Antiproliferative activity against human NCI-H522 cells assessed as growth inhibition at 10 uM measured after 48 hrs by NCI protocol based SRB assay relative to control; conditions: read-out: GI
NCI-H226 = assay: Antiproliferative activity against human NCI-H226 cells assessed as growth inhibition at 10 uM measured after 48 hrs by NCI protocol based SRB assay relative to control; conditions: read-out: GI
HCT-116 = assay: Antiproliferative activity against human HCT-116 cells assessed as growth inhibition at 10 uM measured after 48 hrs by NCI protocol based SRB assay relative to control; conditions: read-out: GI
HCT-15 = assay: Antiproliferative activity against human HCT-15 cells assessed as growth inhibition at 10 uM measured after 48 hrs by NCI protocol based SRB assay relative to control; conditions: read-out: GI
KM12 = assay: Antiproliferative activity against human KM12 cells assessed as growth inhibition at 10 uM measured after 48 hrs by NCI protocol based SRB assay relative to control; conditions: read-out: GI
SW-620 = assay: Antiproliferative activity against human SW-620 cells assessed as growth inhibition at 10 uM measured after 48 hrs by NCI protocol based SRB assay relative to control; conditions: read-out: GI
HT-29 = assay: Antiproliferative activity against human HT-29 cells assessed as growth inhibition at 10 uM measured after 48 hrs by NCI protocol based SRB assay relative to control; conditions: read-out: GI
SF-539 = assay: Antiproliferative activity against human SF-539 cells assessed as growth inhibition at 10 uM measured after 48 hrs by NCI protocol based SRB assay relative to control; conditions: read-out: GI
SF-268 = assay: Antiproliferative activity against human SF-268 cells assessed as growth inhibition at 10 uM measured after 48 hrs by NCI protocol based SRB assay relative to control; conditions: read-out: GI
SNB-75 = assay: Antiproliferative activity against human SNB-75 cells assessed as growth inhibition at 10 uM measured after 48 hrs by NCI protocol based SRB assay relative to control; conditions: read-out: GI
SNB-19 = assay: Antiproliferative activity against human SNB-19 cells assessed as growth inhibition at 10 uM measured after 48 hrs by NCI protocol based SRB assay relative to control; conditions: read-out: GI
U-251 = assay: Antiproliferative activity against human U-251 cells assessed as growth inhibition at 10 uM measured after 48 hrs by NCI protocol based SRB assay relative to control; conditions: read-out: GI
MDA-MB-435 = assay: Antiproliferative activity against human MDA-MB-435 cells assessed as growth inhibition at 10 uM measured after 48 hrs by NCI protocol based SRB assay relative to control; conditions: read-out: GI
SK-MEL-2 = assay: Antiproliferative activity against human SK-MEL-2 cells assessed as growth inhibition at 10 uM measured after 48 hrs by NCI protocol based SRB assay relative to control; conditions: read-out: GI
SK-MEL-5 = assay: Antiproliferative activity against human SK-MEL-5 cells assessed as growth inhibition at 10 uM measured after 48 hrs by NCI protocol based SRB assay relative to control; conditions: read-out: GI
UACC-62 = assay: Antiproliferative activity against human UACC-62 cells assessed as growth inhibition at 10 uM measured after 48 hrs by NCI protocol based SRB assay relative to control; conditions: read-out: GI
UACC-257 = assay: Antiproliferative activity against human UACC-257 cells assessed as growth inhibition at 10 uM measured after 48 hrs by NCI protocol based SRB assay relative to control; conditions: read-out: GI
IGROV-1 = assay: Antiproliferative activity against human IGROV-1 cells assessed as growth inhibition at 10 uM measured after 48 hrs by NCI protocol based SRB assay relative to control; conditions: read-out: GI
OVCAR-4 = assay: Antiproliferative activity against human OVCAR-4 cells assessed as growth inhibition at 10 uM measured after 48 hrs by NCI protocol based SRB assay relative to control; conditions: read-out: GI
OVCAR-8 = assay: Antiproliferative activity against human OVCAR-8 cells assessed as growth inhibition at 10 uM measured after 48 hrs by NCI protocol based SRB assay relative to control; conditions: read-out: GI
NCI/ADR-RES = assay: Antiproliferative activity against human NCl/ADR-RES cells assessed as growth inhibition at 10 uM measured after 48 hrs by NCI protocol based SRB assay relative to control; conditions: read-out: GI
SK-OV-3 = assay: Antiproliferative activity against human SK-OV-3 cells assessed as growth inhibition at 10 uM measured after 48 hrs by NCI protocol based SRB assay relative to control; conditions: read-out: GI
786-0 = assay: Antiproliferative activity against human 786-0 cells assessed as growth inhibition at 10 uM measured after 48 hrs by NCI protocol based SRB assay relative to control; conditions: read-out: GI
SN12C = assay: Antiproliferative activity against human SN12C cells assessed as growth inhibition at 10 uM measured after 48 hrs by NCI protocol based SRB assay relative to control; conditions: read-out: GI
ACHN = assay: Antiproliferative activity against human ACHN cells assessed as growth inhibition at 10 uM measured after 48 hrs by NCI protocol based SRB assay relative to control; conditions: read-out: GI
CAKI-1 = assay: Antiproliferative activity against human CAKI-1 cells assessed as growth inhibition at 10 uM measured after 48 hrs by NCI protocol based SRB assay relative to control; conditions: read-out: GI
UO-31 = assay: Antiproliferative activity against human UO-31 cells assessed as growth inhibition at 10 uM measured after 48 hrs by NCI protocol based SRB assay relative to control; conditions: read-out: GI
PC-3 = assay: Antiproliferative activity against human PC-3 cells assessed as growth inhibition at 10 uM measured after 48 hrs by NCI protocol based SRB assay relative to control; conditions: read-out: GI
MDA-MB-231 = assay: Antiproliferative activity against human MDA-MB-231 cells assessed as growth inhibition at 10 uM measured after 48 hrs by NCI protocol based SRB assay relative to control; conditions: read-out: GI
MCF7 = assay: Antiproliferative activity against human MCF7 cells assessed as growth inhibition at 10 uM measured after 48 hrs by NCI protocol based SRB assay relative to control; conditions: read-out: GI
T47D = assay: Antiproliferative activity against human T47D cells assessed as growth inhibition at 10 uM measured after 48 hrs by NCI protocol based SRB assay relative to control; conditions: read-out: GI
MDA-MB-468 = assay: Antiproliferative activity against human MDA-MB-468 cells assessed as growth inhibition at 10 uM measured after 48 hrs by NCI protocol based SRB assay relative to control; conditions: read-out: GI
MV4-11 = assay: Antiproliferative activity against human MV4-11 cells assessed as reduction in cell viability incubated for 72 hrs by resazurin dye based assay; conditions: MV4-11, 72 h
CCRF-CEM [4] = assay: Antiproliferative activity against human CEM cells assessed as reduction in cell viability incubated for 72 hrs by resazurin dye based assay

COc1cc(-c2c(C#N)c(-c3ccco3)nc3c2c(-c2ccccc2)nn3-c2ccccc2)ccc1O
IC50 (K562 [1]): 24.9 µM | inhibition of growth at 10 µM (RPMI-8226): 21% | inhibition of growth at 10 µM (CCRF-CEM [2]): 25% | inhibition of growth at 10 µM (MOLT-4): 47% | inhibition of growth at 10 µM (K562 [3]): 32% | inhibition of growth at 10 µM (SR): 34% | inhibition of growth at 10 µM (HOP-92): 33% | inhibition of growth at 10 µM (A549): 39% | inhibition of growth at 10 µM (EKVX): 31% | inhibition of growth at 10 µM (NCI-H460): 28% | inhibition of growth at 10 µM (NCI-H522): 30% | inhibition of growth at 10 µM (NCI-H226): 15% | inhibition of growth at 10 µM (HCT-116): 43% | inhibition of growth at 10 µM (HCT-15): 28% | inhibition of growth at 10 µM (KM12): 15% | inhibition of growth at 10 µM (SW-620): 11% | inhibition of growth at 10 µM (HT-29): 15% | inhibition of growth at 10 µM (SF-539): 13% | inhibition of growth at 10 µM (SF-268): 25% | inhibition of growth at 10 µM (SNB-75): 27% | inhibition of growth at 10 µM (SNB-19): 13% | inhibition of growth at 10 µM (U-251): 15% | inhibition of growth at 10 µM (MDA-MB-435): 23% | inhibition of growth at 10 µM (SK-MEL-2): 11% | inhibition of growth at 10 µM (SK-MEL-5): 20% | inhibition of growth at 10 µM (UACC-62): 18% | inhibition of growth at 10 µM (UACC-257): 16% | inhibition of growth at 10 µM (IGROV-1): 13% | inhibition of growth at 10 µM (OVCAR-4): 19% | inhibition of growth at 10 µM (OVCAR-8): 15% | inhibition of growth at 10 µM (NCI/ADR-RES): 19% | inhibition of growth at 10 µM (SK-OV-3): 15% | inhibition of growth at 10 µM (786-0): 26% | inhibition of growth at 10 µM (SN12C): 18% | inhibition of growth at 10 µM (ACHN): 12% | inhibition of growth at 10 µM (CAKI-1): 29% | inhibition of growth at 10 µM (UO-31): 27% | inhibition of growth at 10 µM (PC-3): 41% | inhibition of growth at 10 µM (MDA-MB-231): 17% | inhibition of growth at 10 µM (MCF7): 34% | inhibition of growth at 10 µM (T47D): 34% | inhibition of growth at 10 µM (MDA-MB-468): 14% | IC50 (MV4-11): 35.3 µM | IC50 (CCRF-CEM [4]): 36.5 µM
